Source: PMC5078989, “Targeted inhibition of the COP9 signalosome for treatment of cancer” (Nature Communications, 2016)
pEC50: −log10 of the molar value.

Test system: panel of cancer cell lines
Assay: Cell viability (CellTiter-Glo) dose-response across cancer cell line panel;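 for pEC50: after 72 h compound incubation with CellTiter-Glo ATP readout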
Assay type: cell-based, human
Settings: for pEC50: Homo sapiens
Description: Next, we explored the effect of CSN5 inhibition on the viability of cancer cells. To obtain a comprehensive picture, we generated dose–response curves with a CSN5 inhibitor across more than 500 cancer cell lines in a previously described standardized setting[47] (Supplementary Data 1).
A standardized CellTiter-Glo Assay (Promega #G7570) based on the quantification of ATP was applied according to the manufacturer's protocol to measure the amount of viable cells in culture. In brief, cells were seeded into 384-well plates at optimal density for each cell line. After 4 h, compounds were added at different concentrations in growth medium and incubated for another 72 h in a humidifying chamber at 37 °C and 5% CO2. […] EC50 values were calculated from the plot of percentage of inhibition versus inhibitor concentration using the nonlinear regression analysis software Origin 7.5SR6 (OriginLab Corp.).

COCc1ccccc1NCc1ccc([C@@H]2[C@H](O)CCCc3cncn32)c(-c2ccccc2Cl)c1 [CSN5i-2e, (5R,6R)-5-(2′-chloro-5-(((2-(methoxymethyl)phenyl)amino)methyl)-[1,1′-biphenyl]-2-yl)-6,7,8,9-tetrahydro-5H-imidazo[1,5-a]azepin-6-ol]
pEC50 (SNU-685 cells): < 4.52 | pEC50 (SNU-738 cells): 4.83 | pEC50 (SNU-761 cells): 4.95 | pEC50 (SNU-1040 cells): 4.72 | pEC50 (SNU-1079 cells): 4.88 | pEC50 (SNU-C1, SNU-C1 cells): 4.75 | pEC50 (SNU-C2A cells): 4.97 | pEC50 (SNU-C4, SNU-C4 cells): 4.86 | pEC50 (SNU-C5 cells): 5.08 | pEC50 (SR-786, SR-786 cells): 4.94 | pEC50 (SU-DHL10, SU-DHL-10 cells): 5.24 | pEC50 (SU-DHL-4, SU-DHL-4 cells): 4.96 | pEC50 (SU-DHL-5, SU-DHL-5 cells): 5.36 | pEC50 (SU-DHL-6, SU-DHL-6 cells): 5.22 | pEC50 (SU-DHL-8, SU-DHL-8 cells): 5.18 | pEC50 (SU.86.86, SU.86.86 cells): 4.97 | pEC50 (SUM44PE cells): 4.58 | pEC50 (SUM52PE, SUM52PE cells): 5.47 | pEC50 (SUM149PT, SUM149PT cells): 4.98 | pEC50 (SUM-159-PT, SUM159PT cells): 4.95 | pEC50 (SUP-T1, SUP-T1 cells): 5.00 | pEC50 (SW48, SW48 cells): 4.91 | pEC50 (SW480, SW480 cells): 5.02 | pEC50 (SW982, SW982 cells): 4.94 | pEC50 (SW1088, SW 1088 cells): 4.98 | pEC50 (SW1271, SW 1271 cells): 4.73 | pEC50 (SW1573, SW 1573 cells): 5.03 | pEC50 (SW1783, SW 1783 cells): < 4.52 | pEC50 (SW-403, SW403 cells): 4.62 | pEC50 (SW-620, SW620 cells): 4.66 | pEC50 (SYO-1 cells): 4.95 | pEC50 (Sq-1 cells): 4.93 | pEC50 (T3M4, T3M-4 cells): 4.73 | pEC50 (T47D, T-47D cells): 5.13 | pEC50 (TANOUE cells): 5.19 | pEC50 (TC-71, TC-71 cells): 5.02 | pEC50 (TCC-PAN2 cells): 4.54 | pEC50 (TE-6, TE-6 cells): 4.86 | pEC50 (TE-11, TE-11 cells): 4.97 | pEC50 (TE-15, TE-15 cells): 4.82 | pEC50 (TF-1, TF-1 cells): 5.06 | pEC50 (THP-1, THP-1 cells): 5.26 | pEC50 (TYK-nu cells): 4.98 | pEC50 (U266B1 cells): 5.02 | pEC50 (U-118-MG, U-118 MG cells): 4.60 | pEC50 (U-937, U-937 cells): 5.13 | pEC50 (UACC-62, UACC-62 cells): 4.86 | pEC50 (UACC-257, UACC-257 cells): 4.95 | pEC50 (UCH1, UCH-1 cells): 4.83 | pEC50 (UKE1, UKE1 cells): 5.04 | pEC50 (VM-CUB-1, VM-CUB1 cells): 5.35 | pEC50 (VMRC-LCD cells): 4.96 | pEC50 (VMRC-RCW cells): 4.92 | pEC50 (WM 266-4, WM-266-4 cells): 4.77 | pEC50 (WM983B, WM-983B cells): 5.02 | pEC50 (WM-88 cells): 4.87 | pEC50 (WM-115, WM-115 cells): 5.13 | pEC50 (WSU-WM cells): 5.11 | pEC50 (YAPC, YAPC cells): 4.94 | AMAX (Hs 695T cells): -86.8488 | AMAX (Hs 936.T cells): -93.4541 | AMAX (HuG1-N cells): -87.0263 | AMAX (HuH-7 cells): -97.6516 | AMAX (IGR-37 cells): -77.0355 | AMAX (IGROV1 cells): -71.2355 | AMAX (IPC-298 cells): -72.365 | AMAX (Ishikawa cells): -88.4272 | AMAX (J82 cells): -35.798 | AMAX (JHH-4 cells): -90.0924 | AMAX (JHOS-2 cells): -45.7705 | AMAX (JHUEM-2 cells): -96.4199 | AMAX (JHUEM-3 cells): -54.8666 | AMAX (JL-1 cells): -68.6834 | AMAX (JVM-2 cells): -97.127 | AMAX (KARPAS-422 cells): -93.641 | AMAX (KATO III cells): -77.3764 | AMAX (KBM-7 cells): -97.1328 | AMAX (KE-97 cells): -93.3813 | AMAX (KMRC-1 cells): -75.0974 | AMAX (KP-1N cells): -76.285 | AMAX (KP-2 cells): -93.6503 | AMAX (KP-3 cells): -72.8527 | AMAX (KU-19-19 cells): -88.0441 | AMAX (KYSE-150 cells): -68.4693 | AMAX (KYSE-180 cells): -91.1186 | AMAX (Kasumi3 cells): -95.9336 | AMAX (L-363 cells): -92.1173 | AMAX (LC2/ad cells): -70.6199 | AMAX (LCLC-103H cells): -71.5681 | AMAX (MFE-280 cells): -75.2715 | AMAX (MM138 cells): -91.9111 | AMAX (MM415 cells): -83.1051 | AMAX (MM426 cells): -57.5258 | AMAX (MM485 cells): -82.1717 | AMAX (MM537 cells): -84.9338 | AMAX (MOLT-16 cells): -96.4687 | AMAX (MeWo cells): -73.0371 | AMAX (NB-1 cells): -97.6901 | AMAX (NCI-H82 cells): -96.2323 | AMAX (NCI-H146 cells): -95.028 | AMAX (NCI-H322 cells): -82.8728 | AMAX (NCI-H441 cells): -78.9188 | AMAX (NCI-H810 cells): -2.884 | AMAX (NCI-H841 cells): -94.3751 | AMAX (NCI-H1373 cells): -93.5484 | AMAX (NCI-H1568 cells): -98.9282 | AMAX (NCI-H1755 cells): -88.1389 | AMAX (NCI-H2023 cells): -87.7102 | AMAX (NCI-H2087 cells): -85.0078 | AMAX (NCI-H2452 cells): -48.2134 | AMAX (ONCO-DG-1 cells): -95.499 | AMAX (OUMS-23 cells): -91.7164 | AMAX (OV56 cells): -92.0115 | AMAX (P3HR-1 cells): -92.6521 | AMAX (P12-ICHIKAWA cells): -96.1728 | AMAX (PA-TU-8988T cells): -59.6796 | AMAX (PANC-1 cells): -78.7196 | AMAX (PC-3 cells): -66.4355 | AMAX (PE/CA-PJ49 cells): -89.0883 | AMAX (PF-382 cells): -96.9256 | AMAX (Panc 03.27 cells): -56.1495 | AMAX (Panc 04.03 cells): -74.9732 | AMAX (Panc 10.05 cells): -81.9961 | AMAX (RD-ES cells): -95.6768 | AMAX (RT-112 cells): -70.4236 | AMAX (SEM cells): -91.5844 | AMAX (SF-268 cells): -46.326 | AMAX (SK-ES-1 cells): -87.9534 | AMAX (SK-MEL-3 cells): -63.3656
